# Measured values taken from patent US20050096331A1, “Novel compounds and their use in medicine process for their preparation and pharmaceutical compositions containing them” (priority 2001, published 2005).
# What was measured:
# [1] = test system: C57BL/KsJ-db/db mice; assay: Efficacy in genetic models: blood sugar and triglyceride lowering in db/db mice; type: in vivo, mouse
# Excerpt: Mutation in colonies of laboratory animals and different sensitivities to dietary regimens have made the development of animal models with non-insulin dependent diabetes and hyperlipidemia associated with obesity and insulin resistance possible. Genetic models such as db/db and ob/ob (Diabetes, (1982) 31(1): 1-6) mice and zucker fa/fa rats have been developed by the various laboratories for understanding the pathophysiology of disease and testing the efficacy of new antidiabetic compounds (Diabetes, (1983) 32: 830-838; Annu. Rep. Sankyo Res. Lab. (1994). 46: 1-57). The homozygous animals, C57 BL/KsJ-db/db mice developed by Jackson Laboratory, US, are obese, hyperglycemic, hyperinsulinemic and insulin resistant (J. Clin. Invest., (1990) 85: 962-967), whereas heterozygous are lean and normoglycemic. In db/db model, mouse progressively develops insulinopenia with age, a feature commonly observed in late stages of human type II diabetes when blood sugar levels are insufficiently controlled. The state of pancreas and its course vary according to the models. Since this model resembles that of type II diabetes mellitus, the compounds of the present invention were tested for blood sugar and triglycerides lowering activities.
# Male C57BL/KsJ-db/db mice of 8 to 14 weeks age, having body weight range of 35 to 60 grams, bred at Dr. Reddy's Research Foundation (DRF) animal house, were used in the experiment The mice were provided with standard feed (National Institute of Nutrition (NIN), Hyderabad, India) and acidified water, ad libitum. The animals having more tan 350 mg/dl blood sugar were used for testing. The number of animals in each group was 4.
# Test compounds were suspended on 0.25% carboxymethyl cellulose and administered to test group at a dose of 0.1 mg to 30 mg/kg through oral gavage daily for 6 days. The control group received vehicle (dose 10 ml/kg). On 6th day the blood samples were collected one hour after administration of test compounds/vehicle for assessing the biological activity.
# The random blood sugar and triglyceride levels were measured by collecting blood (100 μl) through orbital sinus, using heparinised capillary in tubes containing EDTA which was centrifuged to obtain plasma. The plasma glucose and triglyceride levels were measured spectrometrically, by glucose oxidase and glycerol-3-PO4 oxidase/peroxidase enzyme (Dr. Reddy's Lab. Diagnostic Division Kits, Hyderabad, India) methods respectively.
# The blood sugar and triglycerides lowering activities of the test compound was calculated according to the formula.
# (§1) • 1. Percent reduction in Blood sugar/triglycerides/total cholesterol were calculated according to the formula: [formula] • OC=Zero day control group value • OT=Zero day treated group value • TC=Test day control group value • TT=Test day treated group value • 2. LDL and VLDL cholesterol levels were calculated according to the formula: [formula] [formula]
# [2] = molecular target: T1, hPPARγ1 (Homo sapiens, UniProt P37231); assay: Determination of hPPARγ activity (GAL4 luciferase reporter transactivation); type: cell-based; conditions: compound at 1 μM; luciferase activity in transfected HEK-293 cells
# T1 construct: expressed in transfected cells; host or cells: HEK-293
# T1 sequence (P37231 238-503 limits assumed): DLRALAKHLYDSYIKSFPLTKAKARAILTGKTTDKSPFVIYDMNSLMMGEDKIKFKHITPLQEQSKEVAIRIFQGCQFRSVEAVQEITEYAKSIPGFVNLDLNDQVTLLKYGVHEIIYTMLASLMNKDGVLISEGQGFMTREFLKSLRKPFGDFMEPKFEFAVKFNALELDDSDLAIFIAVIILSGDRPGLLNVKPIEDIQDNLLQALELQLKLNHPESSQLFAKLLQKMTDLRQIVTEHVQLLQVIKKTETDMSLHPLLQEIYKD
# Method: Ligand binding domain of hPPARγ1 was fused to DNA binding domain of Yeast transcription factor GAL4 in eucaryotic expression vector. Using lipofectamine (Gibco BRL, USA) as transfecting reagent HEK-293 cells were transfected with this plasmid and a reporter plasmid harboring the luciferase gene driven by a GAL4 specific promoter. Compound was added at 1 μM concentration after 48 hrs of transfection and incubated overnight. Luciferase activity as a function of drug binding/activation capacity of PPARγ1 was measured using Packard Luclite kit (Packard, USA) in Packard Top Count (Ivan Sadowski, Brendan Bell, Peter Broag and Melvyn Hollis. Gene 1992, 118: 137-141; Guide to Eukaryotic Transfections with Cationic Lipid Reagents. Life Technologies, GIBCO BRL, USA).
# [3] = molecular target: T2, hPPARα (Homo sapiens, UniProt Q07869); assay: Determination of hPPARα activity (GAL4 luciferase reporter transactivation); type: cell-based; conditions: compound at 50 μM; luciferase activity in transfected HEK-293 cells
# T2 construct: expressed in transfected cells; host or cells: HEK-293
# T2 sequence (Q07869 239-466 limits assumed): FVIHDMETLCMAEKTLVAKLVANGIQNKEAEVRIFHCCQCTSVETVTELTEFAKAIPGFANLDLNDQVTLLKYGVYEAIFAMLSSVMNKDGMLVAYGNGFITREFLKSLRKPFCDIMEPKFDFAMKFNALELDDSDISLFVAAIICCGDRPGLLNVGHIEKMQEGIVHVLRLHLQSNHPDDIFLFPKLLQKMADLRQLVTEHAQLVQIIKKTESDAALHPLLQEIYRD
# Method: Ligand binding domain of hPPARα was fused to DNA binding domain of Yeast transcription factor GAL4 in eucaryotic expression vector. Using superfect (Qiagen, Germany) as transfecting reagent HEK-293 cells were transfected with this plasmid and a reporter plasmid harboring the luciferase gene driven by a GAL4 specific promoter. Compound was added at different concentrations after 42 hrs of transfection and incubated overnight. Luciferase activity as a function of compound binding/activation capacity of PPARα was measured using Packard Luclite kit (Packard, USA) in Top Count (Ivan Sadowski, Brendan Bell, Peter Broag and Melvyn Hollis. Gene 1992, 118: 137-141; Superfect Transfection Reagent Handbook. February 1997. Qiagen, Germany).
# [4] = test system: Swiss albino mice; assay: Plasma triglyceride and total cholesterol lowering activity in Swiss albino mice and Guinea pigs; type: in vivo, mouse; conditions: 6 days
# Method: Male Swiss albino mice (SAM) and male Guinea pigs were obtained from NIN and housed in DRF animal house. All these animals were maintained under 12 hour light and dark cycle at 25±1° C. Animals were given standard laboratory chow (NIN, Hyderabad, India) and water, ad libitum. SAM of 20-25 g body weight range and Guinea pigs of 500-700 g body weight range were used (Oliver, P., Plancke, M. O., Marzin, D., Clavey, V., Sauzieres, J and Fruchart, J. C. Effects of fenofibrate, gemfibrozil and nicotinic acid on plasma lipoprotein levels in normal and hyperlipidemic mice. Atherosclerosis. 1988. 70: 107-114).
# The test compounds were administered orally to Swiss albino mice at 0.3 to 30 mg/kg/day dose for 6 days. Control mice were treated with vehicle (0.25% Carboxymethylcellulose; dose 10 ml/kg). The test compounds were administered orally to Guinea pigs at […] dose for 6 days. Control animals were treated with vehicle (0.25% Carboxymethylcellulose; dose 5 ml/kg).
# The blood samples were collected in fed state 1 hour after drug administration on 0 and 6 day of treatment. The blood was collected from the retro-orbital sinus through heparinised capillary in EDTA containing tubes. After centrifugation, plasma sample was separated for triglyceride and total cholesterol (Wieland, O. Methods of Enzymatic analysis. Bergermeyer, H. O., Ed., 1963. 211-214; Trinder, P. Ann. Clin. Biochem 1969, 6: 24-27). Measurement of plasma triglyceride, total cholesterol and HDL were done using commercial kits (Dr. Reddy's Diagnostic Division, Hyderabad, India).
# as §1
# [5] = 3 mg/kg oral gavage daily for 6 days
# [6] = 10 mg/kg oral gavage daily for 6 days
smiles,measurement,setting,value
"CCCc1nn(C)c2c(OCCOc3ccc(CC(OCC)C(=O)OCC)cc3)nc(C)nc12 (stereo in doubt) [Example 5, Ethyl 2(S)-3-[4-{2-1,5-dimethyl-3-propyl-1H-pyrazolo[4,3-dipyrimidin-7-yloxy)ethoxy}phenyl]-2-ethoxypropanoate]",Reduction in Blood Glucose Level (%),[1]; [5],61%
same,Triglyceride Lowering (%),[1]; [5],51%
"CCCCCCCN(C(=O)COc1nc(CC)nc2c(CCC)nn(C)c12)c1ccc(SC(CCC)C(=O)O)cc1 (stereo not shown) [Example 2, 2-[4-(5-Ethyl-1-methyl-3-propyl-1H-pyrazolo[4,3-d]pyrimidin-7-yloxymethyl-(heptyl)carboxamido)phenylsulfanyl]pentanoic Acid]",PPARγ,[2],1.4
same,PPARα,[3],2.7
"CCCc1nn(C)c2c(OCCOc3ccc(C[C@H](OCC)C(=O)OC)cc3)nc(CC)nc12 [Example 4a, Methyl 2(S)-2-ethoxy-3-[4-{2-(5-ethyl-1-methyl-3-propyl-1H-pyrazolo [4,3-d]-pyrimidin-7-yloxy)ethoxy}phenyl]propanoate]",Reduction in Blood Glucose Level (%),[1]; [6],48%
same,Triglyceride Lowering (%),[1]; [6],69%
"CCCc1nn(C)c2c(OCCOc3ccc(C[C@H](OCC)C(=O)O)cc3)nc(CC)nc12 [Example 4b, 2(S)-2-Ethoxy-3-[4-{2-(5-ethyl-1-methyl-3-propyl-1H-pyrazolo[4,3-d]pyrimidin-7-yloxy)ethoxy}phenyl]propanoic Acid]",PPARγ,[2],6.9
same,PPARα,[3],5.1
same,Reduction in Blood Glucose Level (%),[1]; [6],56%
same,Triglyceride Lowering (%),[1]; [6],17%
"CCCc1nn(C)c2c(OCCOc3ccc(CC(OCC)C(=O)OCC)cc3)nc(-c3ccccc3)nc12 (stereo not shown) [Example 7, Ethyl 2-ethoxy-3-[4-{2-(1-methyl-5-phenyl-3-propyl-1H-pyrazolo-[4,3-d]-pyrimidin-7-yloxy)ethoxy}phenyl]propanoate]",Triglyceride Lowering (%),[4]; 3 mg/kg orally,43%
"CCCc1nn(C)c2c(OCCOc3ccc(CC(OCC)C(=O)O)cc3)nc(-c3ccccc3)nc12 (stereo not shown) [Example 8, 3-[4-{2-(1-Methyl-5-phenyl-3-propyl-1H-pyrazolo-14,3-d]pyrimidin-7-yloxy)ethoxy}phenyl-2-ethoxypropanoic Acid]",Triglyceride Lowering (%),[4]; 10 mg/kg orally,61%
"CCCc1nn(C)c2c(OCCOc3ccc(C[C@H](OCC)C(=O)O)cc3)nc(C3CC3)nc12 [Example 10, (2S)-3-[4-{2-(5-Cyclopropyl-1-methyl-3-propyl-1H-pyrazolo[4,3-d]pyrimidin-7-yloxy)ethoxy}phenyl]-2-ethoxypropanoic Acid]",Triglyceride Lowering (%),[4]; 3 mg/kg orally,42%
